# Laboratory results published in patent US10287301B2 (Achillion Pharmaceuticals, Inc., priority 2015, dated 2019).
# Where two headings read alike, the source gives them in different places.
# Target: Human Factor D (Homo sapiens (Human), UniProt P00746)
# Assay: Human Factor D Assay
# Assay type: biochemical
# Method in brief: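 Thioesterase activity monitored with Z-L-Lys-SBzl plus Ellman's reagent (DTNB), each 100 μM final, after 5 min room-temperature compound preincubation of 80 nM human serum Factor D in pH 7.5 Tris (50 mM)/1M NaCl.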
# [1] = Table 3, Human Factor D 80 nM, substrate Z-L-Lys-SBzl, read-out: IC50 (Stars)
# [2] = Human Factor D, Table 3, read-out: IC50
# [3] = Human Factor D assay of Example 8, Table 2, read-out: IC50
# [4] = Human Factor D 80 nM, substrate Z-L-Lys-SBzl, read-out: IC50
# Sequence of Human Factor D (P00746 26-253): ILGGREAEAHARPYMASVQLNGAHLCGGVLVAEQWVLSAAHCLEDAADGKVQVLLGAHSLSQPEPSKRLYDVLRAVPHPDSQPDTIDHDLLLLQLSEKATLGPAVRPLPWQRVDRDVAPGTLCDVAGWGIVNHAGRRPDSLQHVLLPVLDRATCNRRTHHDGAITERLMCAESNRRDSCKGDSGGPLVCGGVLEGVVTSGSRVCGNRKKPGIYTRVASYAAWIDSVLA
compound,measurement,setting,value
"CC(=O)c1nn(CC(=O)N2C[C@H](F)C[C@H]2C(=O)Nc2cccc(OC(F)(F)F)n2)c2ccc(-c3cnc(C)nc3)cc12 [Compound 344, (2S,4R)-1-(2-(3-Acetyl-5-(2-methylpyrimidin-5-yl)-1H-indazol-1-yl)acetyl)-4-fluoro-N-(6-(trifluoromethoxy)pyridin-2-yl)pyrrolidine-2-carboxamide]",IC50,[1],< 1000 nM
"CC(=O)c1nn(CC(=O)N2C[C@H](F)C[C@H]2C(=O)Nc2cccc(Br)n2)c2ccc(-c3cnc4cc(C(F)(F)F)nn4c3)cc12 [Compound 684, (2S,4R)-1-(2-(3-Acetyl-5-(2-(trifluoromethyl)pyrazolo[1,5-a]pyrimidin-6-yl)-1H-indazol-1-yl)acetyl)-N-(6-bromopyridin-2-yl)-4-fluoropyrrolidine-2-carboxamide]",IC50,[2],< 1000 nM
"Cc1cccc(NC(=O)[C@@H]2[C@H]3CC[C@H](C3)N2C(=O)Cn2cc(C(N)=O)c3cc(-c4ccc(F)nc4)ccc32)n1 [Compound 500, 5-(6-Fluoropyridin-3-yl)-1-(2-((1R,3S,4S)-3-(6-methylpyridin-2-ylcarbamoyl)-2-azabicyclo[2.2.1]heptan-2-yl)-2-oxoethyl)-1H-indole-3-carboxamide]",IC50,,> 10000 nM
"CNc1ncc2cc(-c3cn(CC(=O)N4C[C@H](F)C[C@H]4C(=O)Nc4cccc(Br)n4)nc3C(N)=O)ccc2n1 [Compound 723, 1-(2-((2S,4R)-2-((6-Bromopyridin-2-yl)carbamoyl)-4-fluoropyrrolidin-1-yl)-2-oxoethyl)-4-(2-(methylamino)quinazolin-6-yl)-1H-pyrazole-3-carboxamide]",IC50,[2],> 10000 nM
"CC(=O)c1nn(CC(=O)N2CCS[C@H]2C(=O)Nc2cccc(Br)n2)c2ccc(-c3cnc(C)nc3)cc12 [Compound 308, (S)-3-(2-(3-acetyl-5-(2-methylpyrimidin-5-yl)-1H-indazol-1-yl)acetyl)-N-(6-bromopyridin-2-yl)thiazolidine-2-carboxamide]",IC50,[3],< 1000 nM
"CC(=O)c1cn(CC(=O)N2NCCC2C(=O)Nc2cccc(-c3ccccc3Cl)c2F)c2ccc(-c3cnc(C)nc3)cc12 (stereo not drawn) [Compound 227, 2-(2-(3-acetyl-5-(2-methylpyrimidin-5-yl)-1H-indol-1-yl)acetyl)-N-(2′-chloro-2-fluorobiphenyl-3-yl)pyrazolidine-3-carboxamide]",IC50,[3],< 1000 nM
"Cn1ccc(N2CCC(NC(=O)[C@@H]3C[C@@H](F)CN3C(=O)Cn3nc(C(N)=O)c4cc(-c5ccnnc5)ccc43)C2=O)n1 (stereo partly drawn) [Compound 155, 1-(2-((2S,4R)-4-fluoro-2-(1-(1-methyl-1H-pyrazol-3-yl)-2-oxopyrrolidin-3-ylcarbamoyl)pyrrolidin-1-yl)-2-oxoethyl)-5-(pyridazin-4-yl)-1H-indazole-3-carboxamide]",IC50,[4],> 10000 nM
"CC(=O)c1nn(CC(=O)N2C[C@H](F)C[C@H]2C(=O)Nc2cccc(Br)n2)c2ccc(-c3cnc(C(N)=O)nc3)cc12 [Compound 599, 5-(3-Acetyl-1-(2-((2S,4R)-2-((6-bromopyridin-2-yl)carbamoyl)-4-fluoropyrrolidin-1-yl)-2-oxoethyl)-1H-indazol-5-yl)pyrimidine-2-carboxamide]",IC50,[2],< 1000 nM
"CC(=O)c1cn(CC(=O)N2C[C@H](F)C[C@H]2C(=O)Nc2cccc3c2NC(=O)C(C)O3)c2ccc(-c3ccnnc3)cc12 (stereo partly drawn) [Compound 153, (2S,4R)-1-(2-(3-acetyl-5-(pyridazin-4-yl)-1H-indol-1-yl)acetyl)-4-fluoro-N-(2-methyl-3-oxo-3,4-dihydro-2H-benzo[b][1,4]oxazin-5-yl)pyrrolidine-2-carboxamide]",IC50,[4],> 10000 nM
"COc1ncc(-c2ccc3c(c2)c(C(C)=O)nn3CC(=O)N2[C@@H]3C[C@@H]3C[C@H]2C(=O)Nc2cncc(Br)n2)cn1 [Compound 385, (1R,3S,5R)-2-(2-(3-Acetyl-5-(2-methoxypyrimidin-5-yl)-1H-indazol-1-yl)acetyl)-N-(6-bromopyrazin-2-yl)-2-azabicyclo[3.1.0]hexane-3-carboxamide]",IC50,[1],< 1000 nM
"CC(=O)c1cn(CC(=O)N2C[C@H](F)C[C@H]2C(=O)Nc2cccc(-c3ccccc3Cl)c2F)c2ccc(-c3cnnc(C)c3)cc12 [Compound 121, (2S,4R)-1-(2-(3-acetyl-5-(6-methylpyridazin-4-yl)-1H-indol-1-yl)acetyl)-N-(2′-chloro-2-fluorobiphenyl-3-yl)-4-fluoropyrrolidine-2-carboxamide]",IC50,[4],< 1000 nM
COc1ncc(-c2ccc3c(c2)c(C(C)=O)cn3CC(=O)N2C[C@H](Cl)C[C@H]2C(=O)Nc2cccc(-c3ccccc3Cl)c2F)cn1 [Compound 203],IC50,[3],< 1000 nM
"CC(=O)c1nn(CC(=O)N2C3CC[C@@H](C3)[C@H]2C(=O)Nc2nc(Br)ccc2C)c2ccc(-c3cnc(C)nc3)cc12 [Compound 617, (3S,4S)-2-(2-(3-Acetyl-5-(2-methylpyrimidin-5-yl)-1H-indazol-1-yl)acetyl)-N-(6-bromo-3-methylpyridin-2-yl)-2-azabicyclo[2.2.1]heptane-3-carboxamide]",IC50,[2],< 1000 nM
"CC(=O)c1nn(CC(=O)N2[C@@H]3C[C@@H]3C[C@H]2C(=O)Nc2cccc(Br)n2)c2ccc(-c3cnc4ccnn4c3)cc12 [Compound 238, (1R,3S,5R)-2-(2-(3-acetyl-5-(pyrazolo[1,5-a]pyrimidin-6-yl)-1H-indazol-1-yl)acetyl)-N-(6-bromopyridin-2-yl)-2-azabicyclo[3.1.0] hexane-3-carboxamide]",IC50,[3],< 1000 nM
"NC(=O)c1nn(CC(=O)N2C[C@H](F)C[C@H]2C(=O)Nc2cncc(Br)n2)c2ccc(-c3ccnnc3)cc12 [Compound 128, 1-(2-((2S,4R)-2-(6-bromopyrazin-2-ylcarbamoyl)-4-fluoropyrrolidin-1-yl)-2-oxoethyl)-5-(pyridazin-4-yl)-1H-indazole-3-carboxamide]",IC50,[4],< 1000 nM
"Cc1cccc(NC(=O)[C@@H]2C[C@@H](F)CN2C(=O)Cn2nc(C(N)=O)c3sc(-c4cnc5cc(C)nn5c4)nc32)n1 [Compound 714, 1-(2-((2S,4R)-4-Fluoro-2-(6-methylpyridin-2-ylcarbamoyl)pyrrolidin-1-yl)-2-oxoethyl)-5-(2-methylpyrazolo[1,5-a]pyrimidin-6-yl)-1H-pyrazolo[3,4-d]thiazole-3-carboxamide]",IC50,[2],> 10000 nM
CC(=O)c1nn(CC(=O)N2[C@@H]3C[C@@H]3C[C@H]2C(=O)NC/C(F)=C(/C)c2ccccc2Cl)c2ccc(-c3cnc(C)nc3)cc12 [Compound 523],IC50,[1],< 1000 nM
"CC(=O)c1cn(CC(=O)N2[C@@H]3C[C@@H]3C[C@H]2C(=O)NCc2cccc(Cl)c2F)c2ccc(-c3cnc(C)nc3)cc12 [Compound 134, (1R,3S,5R)-2-(2-(3-acetyl-5-(2-methylpyrimidin-5-yl)-1H-indol-1-yl)acetyl)-N-(3-chloro-2-fluorobenzyl)-2-azabicyclo[3.1.0] hexane-3-carboxamide]",IC50,[4],< 1000 nM
"CC(=O)c1cn(CC(=O)N2C[C@H](F)C[C@H]2C(=O)Nc2nccc(Cl)n2)c2ccc(-c3ccnnc3)cc12 [Compound 180, (2S,4R)-1-(2-(3-acetyl-5-(pyridazin-4-yl)-1H-indol-1-yl)acetyl)-N-(4-chloropyrimidin-2-yl)-4-fluoropyrrolidine-2-carboxamide]",IC50,[4],> 10000 nM
"CC(=O)c1cn(CC(=O)N2C[C@H](F)C[C@H]2C(=O)NCCCCc2ccccc2)c2ccc(-c3cnc4cc(C)nn4c3)cc12 [Compound 688, (2S,4R)-1-(2-(3-Acetyl-5-(2-methylpyrazolo[1,5-a]pyrimidin-6-yl)-1H-indol-1-yl)acetyl)-4-fluoro-N-(4-phenylbutyl)pyrrolidine-2-carboxamide]",IC50,[2],< 1000 nM
"NC(=O)c1nn(CC(=O)N2C[C@H](F)C[C@H]2C(=O)Nc2cccc(-c3ccccc3Cl)c2F)c2cnc(-c3cncnc3)cc12 [Compound 19, 1-(2-((2S,4R)-2-((2′-Chloro-2-fluoro-[1,1′-biphenyl]-3-yl)carbamoyl)-4-fluoropyrrolidin-1-yl)-2-oxoethyl)-5-(pyrimidin-5-yl)-1H-pyrazolo[3,4-c]pyridine-3-carboxamide]",IC50,[4],< 1000 nM
"CC(=O)c1nn(CC(=O)N2CC3CC2(C(=O)Nc2cccc(Br)n2)C3)c2ccc(-c3cnc(C)nc3)cc12 [Compound 462, 2-(2-(3-acetyl-5-(2-Methylpyrimidin-5-yl)-1H-indazol-1-yl)acetyl)-N-(6-bromopyridin-2-yl)-2-azabicyclo[2.1.1]hexane-1-carboxamide]",IC50,[1],< 1000 nM
"Cc1ncc(-c2ccc3c(c2)c(C(N)=O)nn3CC(=O)N2C[C@H](F)C[C@H]2C(=O)Nc2cccc(Br)n2)cn1 [Compound 101, 1-(2-((2S,4R)-2-(6-bromopyridin-2-ylcarbamoyl)-4-fluoropyrrolidin-1-yl)-2-oxoethyl)-5-(2-methylpyrimidin-5-yl)-1H-indazole-3-carboxamide]",IC50,[4],< 1000 nM
"CC(=O)c1cn(CC(=O)N2C[C@H](F)C[C@H]2C(=O)Nc2cccc(-c3ccccc3Cl)c2F)c2ccc(-c3cnc4cc(C)nn4c3)cc12 [Compound 300, (2S,4R)-1-(2-(3-acetyl-5-(2-methylpyrazolo[1,5-a]pyrimidin-6-yl)-1H-indol-1-yl)acetyl)-N-(2′-chloro-2-fluorobiphenyl-3-yl)-4-fluoropyrrolidine-2-carboxamide]",IC50,[3],< 1000 nM
"CC(=O)c1cn(CC(=O)N2[C@@H]3C[C@@H]3C[C@H]2C(=O)Nc2cccc(-c3ccccc3Cl)c2F)c2ccc(-c3cncnc3)cc12 [Compound 15, (1R,3S,5R)-2-(2-(3-acetyl-5-(pyrimidin-5-yl)-1H-indol-1-yl)acetyl)-N-(2′-chloro-2-fluorobiphenyl-3-yl)-2-azabicyclo[3.1.0] hexane-3-carboxamide]",IC50,[4],< 1000 nM
CC(=O)c1cn(CC(=O)N2C[C@H](F)C[C@H]2C(=O)Nc2cccnc2O)c2ccc(-c3ccnnc3)cc12 [Compound 197],IC50,[3],> 10000 nM
"Cc1ncc(-c2ccc3c(c2)c(C(C)O)nn3CC(=O)N2C[C@H](F)C[C@H]2C(=O)Nc2cccc(Br)n2)cn1 (stereo partly drawn) [Compound 361, (2S,4R)-N-(6-bromopyridin-2-yl)-4-fluoro-1-(2-(3-(1-hydroxyethyl)-5-(2-methylpyrimidin-5-yl)-1H-indazol-1-yl)acetyl)pyrrolidine-2-carboxamide]",IC50,read-out: IC50 (Stars),1000 to 10000 nM
